Assay results reported in patent US20230340011A1 (Asteroid Therapeutics, priority 2022, published 2023).
Where two headings read alike, the source gives them in different places.

Tests used:
SREBP-2 = SREBP-2 (Homo sapiens (Human), UniProt Q12772); assay: In vitro assay SREBP-2: PathHunter U2OS SREBP-2 Nuclear Translocation Cell Line, U18666A-stimulated; format: cell-based
LXRβ = LXRβ (Homo sapiens (Human), UniProt P55055); assay: In vitro assay LXRβ: PathHunter NHR CHO cells, LXRβ / Steroid Receptor Co-activator Peptide enzyme fragment complementation; format: cell-based
LXRβ, sequence (P55055 whole entry, the tested form may be a part): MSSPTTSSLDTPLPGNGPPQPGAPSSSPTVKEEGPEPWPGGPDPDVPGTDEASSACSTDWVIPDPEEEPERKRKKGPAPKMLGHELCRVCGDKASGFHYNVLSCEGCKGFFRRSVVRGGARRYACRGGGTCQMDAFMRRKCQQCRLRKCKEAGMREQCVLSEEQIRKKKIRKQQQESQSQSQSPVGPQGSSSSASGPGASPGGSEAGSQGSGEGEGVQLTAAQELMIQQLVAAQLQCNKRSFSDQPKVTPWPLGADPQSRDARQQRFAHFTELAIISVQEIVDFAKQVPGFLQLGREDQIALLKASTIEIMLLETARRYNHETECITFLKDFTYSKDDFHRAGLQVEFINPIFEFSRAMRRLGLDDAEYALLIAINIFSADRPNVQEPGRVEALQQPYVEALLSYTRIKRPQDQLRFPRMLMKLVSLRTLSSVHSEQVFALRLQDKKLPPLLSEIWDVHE
How it was run: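 Co-activator recruitment measured by chemiluminescence after signal generation. The CHO line carries full-length human LXRβ tagged with ProLink and an SRCP–enzyme acceptor fusion in the nucleus; cells sat overnight at 37° C before testing, in charcoal-dextran filtered serum medium with 1% final vehicle.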

[1] = PathHunter U2OS SREBP-2 nuclear translocation cells, U18666A 10 μM, overnight (16 hours)
[2] = PathHunter NHR CHO cells, full-length human LXRβ and SRCP, chemiluminescent signal, read-out: LXRβ PPI

SMILES | IC50 (SREBP-2; [1]) [nM] | EC50 (LXRβ; [2]) [nM] | IC50 (SREBP-2) [nM] | EC50 (LXRβ) [nM]
C[C@H](CCC(=O)N1CCN(c2ncncc2C(F)(F)F)CC1)[C@H]1CC[C@H]2[C@@H]3CC=C4C[C@@H](O)CC[C@]4(C)[C@H]3CC[C@]12C [Example 619, (R)-4-((3S,8S,9S,10R,13R,14S,17R)-3-hydroxy-10,13-dimethyl-2,3,4,7,8,9,10,11,12,13,14,15,16,17-tetradecahydro-1H-cyclopenta[a]phenanthren-17-yl)-1-(4-(5-(trifluoromethyl)pyrimidin-4-yl)piperazin-1-yl)pentan-1-one] | < 250 | > 10000 | – | –
C[C@H](CCC(=O)N1CCN(C(=O)c2cccnc2)CC1)[C@H]1CC[C@H]2[C@@H]3CC=C4C[C@@H](O)CC[C@]4(C)[C@H]3CC[C@]12C [Example 313, (4R)-4-[(1R,3aS,3bS,7S,9aR,9bS,11aR)-7-hydroxy-9a,11a-dimethyl-1H,2H,3H,3aH,3bH,4H,6H,7H,8H,9H,9aH,9bH,10H,11H,11aH-cyclopenta[a]phenanthren-1-yl]-1-[4-(pyridine-3-carbonyl)piperazin-1-yl]pentan-1-one] | – | – | < 250 | > 10000
C#CC1(OC(C)C)CCN(C(=O)CC[C@@H](C)[C@H]2CC[C@H]3[C@@H]4CC=C5C[C@@H](O)CC[C@]5(C)[C@H]4CC[C@]23C)CC1 [Example 329, [(1R,3aS,3bS,7S,9aR,9bS,11aR)-7-hydroxy-9a,11a-dimethyl-1H,2H,3H,3aH,3bH,4H,6H,7H,8H,9H,9aH,9bH,10H,11H,11aH-cyclopenta[a]phenanthren-1-yl]-1-[4-ethynyl-4-(propan-2-yloxy)piperidin-1-yl]pentan-1-one] | < 250 | 1000 to 10000 | – | –
CC(C)OC(=O)N1CCN(C(=O)CC[C@@H](C)[C@H]2CC[C@H]3[C@@H]4CC=C5C[C@@H](O)CC[C@]5(C)[C@H]4CC[C@]23C)[C@@H](C)C1 [Example 589, Isopropyl(S)-4-((R)-4-((3S,8S,9S,10R,13R,14S,17R)-3-hydroxy-10,13-dimethyl-2,3,4,7,8,9,10,11,12,13,14,15,16,17-tetradecahydro-1H-cyclopenta[a]phenanthren-17-yl)pentanoyl)-3-methylpiperazine-1-carboxylate] | < 250 | > 10000 | – | –
CON(C[C@H](C)O)C(=O)CC[C@@H](C)[C@H]1CC[C@H]2[C@@H]3CC=C4C[C@@H](O)CC[C@]4(C)[C@H]3CC[C@]12C [Example 69, (R)-4-((3S,8S,9S,10R,13R,14S,17R)-3-hydroxy-10,13-dimethyl-2,3,4,7,8,9,10,11,12,13,14,15,16,17-tetradecahydro-1H-cyclopenta[a]phenanthren-17-yl)-N—((S)-2-hydroxypropyl)-N-methoxypentanamide] | < 250 | 250 to 1000 | – | –
COc1cncnc1N1CCN(C(=O)CC[C@@H](C)[C@H]2CC[C@H]3[C@@H]4CC=C5C[C@@H](O)CC[C@]5(C)[C@H]4CC[C@]23C)[C@@H](C)C1 [Example 616, (R)-4-((3S,8S,9S,10R,13R,14S,17R)-3-hydroxy-10,13-dimethyl-2,3,4,7,8,9,10,11,12,13,14,15,16,17-tetradecahydro-1H-cyclopenta[a]phenanthren-17-yl)-1-((S)-4-(5-methoxypyrimidin-4-yl)-2-methylpiperazin-1-yl)pentan-1-one] | < 250 | > 10000 | – | –
C[C@H](CCC(=O)N1CC2(C1)CC(C)(CO)C2)[C@H]1CC[C@H]2[C@@H]3CC=C4C[C@@H](O)CC[C@]4(C)[C@H]3CC[C@]12C [Example 372, (R)-4-((3S,8S,9S,10R,13R,14S,17R)-3-hydroxy-10,13-dimethyl-2,3,4,7,8,9,10,11,12,13,14,15,16,17-tetradecahydro-1H-cyclopenta[a]phenanthren-17-yl)-1-(6-(hydroxymethyl)-6-methyl-2-azaspiro[3.3]heptan-2-yl)pentan-1-one] | < 250 | > 10000 | – | –
C[C@H](COC(=O)N1CCN(C(=O)c2cnn(C)c2)CC1)[C@H]1CC[C@H]2[C@@H]3CC=C4C[C@@H](O)CC[C@]4(C)[C@H]3CC[C@]12C [Example 596, (S)-2-((3S,8S,9S,10R,13S,14S,17R)-3-hydroxy-10,13-dimethyl-2,3,4,7,8,9,10,11,12,13,14,15,16,17-tetradecahydro-1H-cyclopenta[a]phenanthren-17-yl)propyl 4-(1-methyl-1H-pyrazole-4-carbonyl)piperazine-1-carboxylate] | < 250 | > 10000 | – | –
CCn1c(CC[C@@H](C)[C@H]2CC[C@H]3[C@@H]4CC=C5C[C@@H](O)CC[C@]5(C)[C@H]4CC[C@]23C)n[nH]c1=S [Example 353, 4-ethyl-5-((R)-3-((3S,8S,9S,10R,13R,14S,17R)-3-hydroxy-10,13-dimethyl-2,3,4,7,8,9,10,11,12,13,14,15,16,17-tetradecahydro-1H-cyclopenta[a]phenanthren-17-yl)butyl)-2,4-dihydro-3H-1,2,4-triazole-3-thione] | < 250 | > 10000 | – | –
COc1cccnc1NC(=O)CC[C@@H](C)[C@H]1CC[C@H]2[C@@H]3CC=C4C[C@@H](O)CC[C@]4(C)[C@H]3CC[C@]12C [Example 625, (R)-4-((3S,8S,9S,10R,13R,14S,17R)-3-hydroxy-10,13-dimethyl-2,3,4,7,8,9,10,11,12,13,14,15,16,17-tetradecahydro-1H-cyclopenta[a]phenanthren-17-yl)-N-(3-methoxypyridin-2-yl)pentanamide] | < 250 | > 10000 | – | –
C[C@H](CCc1ncccc1CO)[C@H]1CC[C@H]2[C@@H]3CC=C4C[C@@H](O)CC[C@]4(C)[C@H]3CC[C@]12C [Example 250, (3S,8S,9S,10R,13R,14S,17R)-17-((R)-4-(3-(hydroxymethyl)pyridin-2-yl)butan-2-yl)-10,13-dimethyl-2,3,4,7,8,9,10,11,12,13,14,15,16,17-tetradecahydro-1H-cyclopenta[a]phenanthren-3-ol] | < 250 | < 250 | – | –
C[C@H](CCC(=O)N1CC(C)(CO)C1)[C@H]1CC[C@H]2[C@@H]3CC=C4C[C@@H](O)CC[C@]4(C)[C@H]3CC[C@]12C [Example 555, (R)-4-((3S,8S,9S,10R,13R,14S,17R)-3-hydroxy-10,13-dimethyl-2,3,4,7,8,9,10,11,12,13,14,15,16,17-tetradecahydro-1H-cyclopenta[a]phenanthren-17-yl)-1-(3-(hydroxymethyl)-3-methylazetidin-1-yl)pentan-1-one] | < 250 | > 10000 | – | –
C[C@H](CCC(=O)N1CCN(C(=O)C(C)(C)O)CC1)[C@H]1CC[C@H]2[C@@H]3CC=C4C[C@@H](O)CC[C@]4(C)[C@H]3CC[C@]12C [Example 336, (R)-4-((3S,8S,9S,10R,13R,14S,17R)-3-hydroxy-10,13-dimethyl-2,3,4,7,8,9,10,11,12,13,14,15,16,17-tetradecahydro-1H-cyclopenta[a]phenanthren-17-yl)-1-(4-(2-hydroxy-2-methylpropanoyl)piperazin-1-yl)pentan-1-one] | < 250 | > 10000 | – | –
CCN(CC)C(=O)N1CCN(C(=O)CC[C@@H](C)[C@H]2CC[C@H]3[C@@H]4CC=C5C[C@@H](O)CC[C@]5(C)[C@H]4CC[C@]23C)CC1 [Example 212, N,N-diethyl-4-((R)-4-((3S,8S,9S,10R,13R,14S,17R)-3-hydroxy-10,13-dimethyl-2,3,4,7,8,9,10,11,12,13,14,15,16,17-tetradecahydro-1H-cyclopenta[a]phenanthren-17-yl)pentanoyl)piperazine-1-carboxamide] | < 250 | > 10000 | – | –
Cc1nnc(C(=O)N2CCN(C(=O)CC[C@@H](C)[C@H]3CC[C@H]4[C@@H]5CC=C6C[C@@H](O)CC[C@]6(C)[C@H]5CC[C@]34C)CC2)o1 [Example 540, (R)-4-((3S,8S,9S,10R,13R,14S,17R)-3-hydroxy-10,13-dimethyl-2,3,4,7,8,9,10,11,12,13,14,15,16,17-tetradecahydro-1H-cyclopenta[a]phenanthren-17-yl)-1-(4-(5-methyl-1,3,4-oxadiazole-2-carbonyl)piperazin-1-yl)pentan-1-one] | < 250 | > 10000 | – | –
Cc1nnc(N2CCN(C(=O)CC[C@@H](C)[C@H]3CC[C@H]4[C@@H]5CC=C6C[C@@H](O)CC[C@]6(C)[C@H]5CC[C@]34C)[C@@H](C)C2)o1 [Example 635, (R)-4-((3S,8S,9S,10R,13R,14S,17R)-3-hydroxy-10,13-dimethyl-2,3,4,7,8,9,10,11,12,13,14,15,16,17-tetradecahydro-1H-cyclopenta[a]phenanthren-17-yl)-1-((S)-2-methyl-4-(5-methyl-1,3,4-oxadiazol-2-yl)piperazin-1-yl)pentan-1-one] | < 250 | > 10000 | – | –
C[C@H](CCC(=O)N1CCN(C(=O)c2cn(C)nn2)[C@@H](C)C1)[C@H]1CC[C@H]2[C@@H]3CC=C4C[C@@H](O)CC[C@]4(C)[C@H]3CC[C@]12C [Example 574, (R)-4-((3S,8S,9S,10R,13R,14S,17R)-3-hydroxy-10,13-dimethyl-2,3,4,7,8,9,10,11,12,13,14,15,16,17-tetradecahydro-1H-cyclopenta[a]phenanthren-17-yl)-1-((S)-3-methyl-4-(1-methyl-1H-1,2,3-triazole-4-carbonyl)piperazin-1-yl)pentan-1-one] | < 250 | > 10000 | – | –
C[C@H](CCc1ncccn1)[C@H]1CC[C@H]2[C@@H]3CC=C4C[C@@H](O)CC[C@]4(C)[C@H]3CC[C@]12C [Example 133, (1R,3aS,3bS,7S,9aR,9bS,11aR)-9a,11a-dimethyl-1-[(2R)-4-(pyrimidin-2-yl)butan-2-yl]-1H,2H,3H,3aH,3bH,4H,6H,7H,8H,9H,9aH,9bH,10H,11H,11aH-cyclopenta[a]phenanthren-7-ol] | 250 to 1000 | 250 to 1000 | – | –
